Values after ≈ are worked out from the molar mass of the structure shown. Where two headings read alike, the source gives them in different places.
Experiments:
[1] = test system: H. pylori strains; assay: MIC of CLR for donor strains and CLR-resistant isogenic mutants (agar/disk dilution); type: cell-based, Helicobacter pylori
Protocol: The susceptibilities of the CLR-resistant strains were determined by the agar dilution method (27). […] The MIC of glycine was defined as the lowest concentration that inhibited the visible growth of isolates completely by the agar dilution method on Mueller-Hinton agar (Becton Dickinson and Company, Paramus, N.J.) plates supplemented with 5% aged sheep blood (Nippon Bio-Test Laboratories Inc., Tokyo, Japan) (M-H agar) (27).
(§1) Briefly, all isolates were incubated for 4 days on BB agar. After this incubation, inocula were prepared by suspending growth from the BB agar plates with antimicrobial agents in saline to achieve a suspension equivalent to a 2.0 McFarland standard. Final inocula of 10^6 CFU/spot were applied to M-H agar or BB. All plates were incubated for 3 days at 35° C. in a microaerophilic atmosphere, and the number of CFU was counted. In the liquid culture study, aliquots from each culture were applied to BB agar after 3 days of incubation of H. pylori at 37° C. under microaerophilic conditions. After 4 days of incubation, the number of CFU was counted. The mean value for the log number of CFU per milliliter was plotted.
CLR-resistant isogenic mutants with a single point mutation in domain V of the 23S rRNA gene were created from strain 26695 by natural transformation (3, 29). Transformants were isolated, and the MICs of CLR were determined by the disk dilution method.

[2] = test system: H. pylori 26695; assay: Time-kill curve test
Protocol: Glycine in BB was added to the cultures at the start of incubation. The mean values for the log number of CFU per milliliter versus time for H. pylori were tested with different concentrations of glycine. At 12-h intervals after drug addition, aliquots of each culture were spread onto BB agar for determination of the number of CFU.
The time course of the antibacterial effects was determined with strain 26695 (18). Briefly, bacteria cultured for 4 days on BB agar were diluted with fresh BB to ˜10^8 CFU/ml. […] At 0, 12, 24, 36, and 48 h, samples were removed and 0.1 ml of 10-fold serial dilution was plated onto BB agar. […] At 0, 6, 12, 18, and 24 h, samples were removed and 0.1 ml of 10-fold serial dilutions was plated onto BB agar. The number of colonies growing on the plates after 4 days of incubation was counted in both studies.

[3] = test system: H. pylori strain 26695; assay: MBC of AMX with glycine by liquid culture method
Protocol: H. pylori was treated with the indicated concentrations of the test compounds for 3 days. AMX was used at concentrations of 0 to 75 ng/ml. […] The mean value for the log number of CFU per milliliter at each concentration was plotted.
By a second method, the minimal bactericidal concentrations (MBCs), defined as the lowest concentration of each antibiotic that completely killed the isolates, were determined by using liquid cultures with antimicrobial agents by a modification of the method of Sjöström et al. (31). […] After 3 days of incubation of H. pylori at 37° C. under microaerophilic conditions, aliquots from each culture were applied to BB agar for determination of the MBC. After 4 days of incubation, the number of CFU was counted.

[4] = test system: CLR-susceptible and CLR-resistant H. pylori strains
Protocol: H. pylori strains were treated with the indicated concentrations of test compound for 3 days. The mean value for the log number of CFU per milliliter of all CLR-susceptible and all CLR-resistant H. pylori strains at each concentration was plotted. Glycine was used at concentrations of 0, 0.5, 1, 1.5, 2.0, and 2.5 mg/ml. […] Symbols: ▪, CLR-susceptible strains; ▴, CLR-resistant strains.
as §1

[5] = test system: Lactococcus lactis subspecies; conditions: cited from earlier work
[6] = test system: H. pylori strain 26695
Protocol: The PAE on bacteria was measured by a modification of the method of Ibrahim et al. (19). After 4 days of growth of strain 26695 on BB agar, the bacteria were harvested, placed into PBS, and diluted with BB to ˜10^8 CFU/ml; and a final inoculum of 10^6 CFU/ml was applied to BB agar. […] After incubation for 8 h, the antibiotics were removed by dilution 1:10^3 into fresh BB and the cultures were incubated for 24 h. Samples were collected for viable counts (numbers of CFU per milliliter) every 4 h, plated onto BB agar plates, and incubated for 4 days. Viability curves were then determined. The control culture, which was not exposed to any antimicrobial agents, was treated similarly.
For quantification of the PAE, viable counts were determined before and after antibiotic exposure.

[7] = test system: 31 H. pylori strains, including CLR-resistant strains; assay: microbe, parasite or virus in culture; conditions: Helicobacter pylori
[8] = test system: 31 H. pylori strains, including CLR-resistant strains

Structure (SMILES): CC[C@H]1OC(=O)[C@H](C)[C@@H](O[C@H]2C[C@@](C)(OC)[C@@H](O)[C@H](C)O2)[C@H](C)[C@@H](O[C@@H]2O[C@H](C)C[C@H](N(C)C)[C@H]2O)[C@](C)(OC)C[C@@H](C)C(=O)[C@H](C)[C@@H](O)[C@]1(C)O [CLR, clarithromycin]
- MIC of CLR ([1]; isogenic mutant strain 26695:535): 4 µg/mL
- MIC of CLR ([1]; isogenic mutant strain 26695:628): 32 µg/mL
- MIC of CLR ([1]; strain 535 (donor, A-to-G at position 2144)): 4 µg/mL
- MIC of CLR ([1]; strain 628 (donor, A-to-G at position 2143)): 32 µg/mL

Structure (SMILES): CC1(C)S[C@@H]2[C@H](NC(=O)[C@H](N)c3ccc(O)cc3)C(=O)N2[C@H]1C(=O)O [AMX, amoxicillin]
- viable cells at 24 h ([2]; AMX alone at 75 ng/ml): no viable cells
- MBC of AMX with glycine relative to that of AMX alone [3]: 1/10
- MBC ([3]; Helicobacter pylori, 26695, read-out: MBC of AMX with glycine, with glycine at 0.5 mg/ml): 0.025 µg/mL
- MBC ([3]; Helicobacter pylori, 26695, read-out: MBC of AMX with glycine, with glycine at 1 mg/ml): 0.01 µg/mL
- MBC ([3]; Helicobacter pylori, 26695, read-out: MBC of AMX, with glycine at 0 mg/ml (AMX alone)): 0.075 µg/mL

Structure (SMILES): NCC(=O)O [glycine, Glycine]
- time of significant decrease in number of CFU (P<0.01) ([2]; glycine alone, all concentrations): 48 h
- earliest time of significant decrease in number of CFU (P<0.01) ([2]; glycine at 5 mg/ml): 24 h
- earliest time of significant decrease in number of CFU (P<0.01) ([2]; glycine at 10 mg/ml): 12 h
- nature of the effect of glycine ([2]; time-kill, 0 to 10 mg/ml): bactericidal
- difference in suppression of growth between CLR-susceptible and -resistant strains ([4]; including isogenic mutant strains, FIG. 1): no difference
- 80% Inh. % ([4]; see FIG. 1): 0.05 mg/mL
- glycine content of medium above which growth failed [5]: more than 2%
- PAE against H. pylori [6]: no PAE
- MIC50 [7]: 1500 µg/mL (≈ 20 mM)
- MIC90 ([7]; 31 strains): 2500 µg/mL (≈ 33.3 mM)
- MIC ([7]; ATCC43504, read-out: MIC of glycine): 2500 µg/mL
- MIC ([7]; read-out: MIC of glycine): 2500 µg/mL
- MIC ([7]; read-out: glycine MICs for the 31 strains): 1000 to 2500 µg/mL (≈ 13.3 to 33.3 mM)
- MIC of glycine [8]: the same as the MIC for strain 26695
- difference in glycine MIC for CLR-susceptible and -resistant strains [8]: no difference
- glycine concentration above which no colonies were detected in M-H agar ([8]; all strains tested): more than 2.5 mg/ml
